In publication PMC5811606, “Characterization of ^111In-labeled Glucose-Dependent Insulinotropic Polypeptide as a Radiotracer for Neuroendocrine Tumors” (Scientific Reports, 2018):
Like-named read-outs stand apart in the source and are kept apart here.

Test: Peptide dose escalation study, BHK-GIPR tumor mice
Assay type: in vivo, BALB/c nude mice
Details: female, mouse, iv, total radioactivity, BHK-GIPR tumor BALB/c nude mice, i.v., 4 h p.i., mean n=5
Protocol: All animal experiments were approved by the Animal Welfare Body of the Radboud University, Nijmegen, The Netherlands and carried out in accordance with their guidelines. Six to eight weeks old, female BALB/c nude mice and C3H mice were purchased from Janvier labs (Le Genest Saint Isle, France). For all in vivo experiments, 6-8 weeks old female BALB/c nude mice were injected subcutaneously in the right shoulder with 0.2 ml of a 2.5 × 10^7 cells/ml suspension of BHK-GIPR transfected cells or with 0.2 ml of a 2.5 × 10^7 cells/ml suspension of NES2Y cells mixed with matrigel (2:1) in the right shoulder. When the tumor reached a diameter of 2-5 mm, mice were randomly divided in groups.
To determine the optimal peptide dose of [Lys^37(DTPA)]N-acetyl-GIP1-42, BHK-GIPR transfected tumor bearing BALB/c nude mice (n = 5/group) were injected intravenously with approximately 3 MBq [Lys^37(^111In-DTPA)]N-acetyl-GIP1-42 (0.05 µg) in the tail vein and were co-injected with escalating amounts of unlabeled [Lys^37(DTPA)]N-acetyl-GIP1-42 (0.05 µg – 1.95 µg), resulting in final peptide doses ranging from 0.1 to 2 µg/mouse (0.02 – 0.4 nmol/mouse) (5 groups, n = 5/group). Four hours after injection, mice were euthanized by CO2/O2 suffocation and tumors and other relevant tissues (heart, muscle, lung, spleen, pancreas, kidney, liver, stomach and duodenum) were dissected, weighed and measured in a well type gamma counter. The percentage injected dose per gram of tissue (%ID/g) was determined for each tissue.

## CC[C@H](C)[C@H](NC(=O)[C@H](CO)NC(=O)[C@H](Cc1ccc(O)cc1)NC(=O)[C@H](CC(=O)O)NC(=O)[C@H](CO)NC(=O)[C@@H](NC(=O)[C@H](Cc1ccccc1)NC(=O)[C@@H](NC(=O)CNC(=O)[C@H](CCC(=O)O)NC(=O)[C@H](C)NC(=O)[C@H](Cc1ccc(O)cc1)NC(C)=O)[C@@H](C)O)[C@@H](C)CC)C(=O)N[C@@H](C)C(=O)N[C@@H](CCSC)C(=O)N[C@@H](CC(=O)O)C(=O)N[C@@H](CCCCN)C(=O)N[C@H](C(=O)N[C@@H](Cc1c[nH]cn1)C(=O)N[C@@H](CCC(N)=O)C(=O)N[C@@H](CCC(N)=O)C(=O)N[C@@H](CC(=O)O)C(=O)N[C@@H](Cc1ccccc1)C(=O)N[C@H](C(=O)N[C@@H](CC(N)=O)C(=O)N[C@@H](Cc1c[nH]c2ccccc12)C(=O)N[C@@H](CC(C)C)C(=O)N[C@@H](CC(C)C)C(=O)N[C@@H](C)C(=O)N[C@@H](CCC(N)=O)C(=O)N[C@@H](CCCCN)C(=O)NCC(=O)N[C@@H](CCCCN)C(=O)N[C@@H](CCCCN)C(=O)N[C@@H](CC(N)=O)C(=O)N[C@@H](CC(=O)O)C(=O)N[C@@H](Cc1c[nH]c2ccccc12)C(=O)N[C@@H](CCCCNC(=O)CN(CCN(CCN(CC(=O)O)CC(=O)O)CC(=O)O)CC(=O)O)C(=O)N[C@@H](Cc1c[nH]cn1)C(=O)N[C@@H](CC(N)=O)C(=O)N[C@H](C(=O)N[C@H](C(=O)N[C@@H](CCC(N)=O)C(=O)O)[C@@H](C)O)[C@@H](C)CC)C(C)C)[C@@H](C)CC [[Lys^37(^111In-DTPA)]N-acetyl-GIP1-42, metal not drawn]
pancreas, 0.1 ug/mouse, peptide dose 0.1 µg, read-out: Pancreas uptake
  tissue uptake at 4 h: 0.169 %ID/g
pancreas, 0.2 ug/mouse, peptide dose 0.2 µg, read-out: Pancreas uptake
  tissue uptake at 4 h: 0.234 %ID/g
pancreas, 0.5 ug/mouse, peptide dose 0.5 µg, read-out: Pancreas uptake
  tissue uptake at 4 h: 0.199 %ID/g
pancreas, 1 ug/mouse, peptide dose 1 µg, read-out: Pancreas uptake
  tissue uptake at 4 h: 0.257 %ID/g
pancreas, 2 ug/mouse, peptide dose 2 µg, read-out: Pancreas uptake
  tissue uptake at 4 h: 0.213 %ID/g
spleen, 0.1 ug, peptide dose 0.1 µg, read-out: Spleen uptake
  tissue uptake at 4 h: 0.648 %ID/g
spleen, 0.2 ug, peptide dose 0.2 µg, read-out: Spleen uptake
  tissue uptake at 4 h: 0.692 %ID/g
spleen, 0.5 ug, peptide dose 0.5 µg, read-out: Spleen uptake
  tissue uptake at 4 h: 0.594 %ID/g
spleen, 1 ug, peptide dose 1 µg, read-out: Spleen uptake
  tissue uptake at 4 h: 0.781 %ID/g
spleen, 2 ug, peptide dose 2 µg, read-out: Spleen uptake
  tissue uptake at 4 h: 0.713 %ID/g
stomach, 0.1 ug/mouse, peptide dose 0.1 µg, read-out: Stomach uptake
  tissue uptake at 4 h: 0.41 %ID/g
stomach, 0.2 ug/mouse, peptide dose 0.2 µg, read-out: Stomach uptake
  tissue uptake at 4 h: 0.418 %ID/g
stomach, 0.5 ug/mouse, peptide dose 0.5 µg, read-out: Stomach uptake
  tissue uptake at 4 h: 0.411 %ID/g
stomach, 1 ug/mouse, peptide dose 1 µg, read-out: Stomach uptake
  tissue uptake at 4 h: 0.527 %ID/g
stomach, 2 ug/mouse, peptide dose 2 µg, read-out: Stomach uptake
  tissue uptake at 4 h: 0.437 %ID/g
tumor/blood, 2 ug/mouse, peptide dose 2 µg, read-out: Tumor/Blood
  tissue to tissue ratio at 4 h: 38
tumor/heart, 0.1 ug/mouse, peptide dose 0.1 µg, read-out: Tumor/Heart
  tissue to tissue ratio at 4 h: 35.6
tumor/heart, 0.2 ug/mouse, peptide dose 0.2 µg, read-out: Tumor/Heart
  tissue to tissue ratio at 4 h: 33.1
tumor/heart, 0.5 ug/mouse, peptide dose 0.5 µg, read-out: Tumor/Heart
  tissue to tissue ratio at 4 h: 14.6
tumor/heart, 1 ug/mouse, peptide dose 1 µg, read-out: Tumor/Heart
  tissue to tissue ratio at 4 h: 16.4
tumor/heart, 2 ug/mouse, peptide dose 2 µg, read-out: Tumor/Heart
  tissue to tissue ratio at 4 h: 11.2
tumor/kidney, 0.1 ug/mouse, peptide dose 0.1 µg, read-out: Tumor/Kidney
  tissue to tissue ratio at 4 h: 0.02
tumor/kidney, 0.2 ug/mouse, peptide dose 0.2 µg, read-out: Tumor/Kidney
  tissue to tissue ratio at 4 h: 0.019
tumor/kidney, 0.5 ug/mouse, peptide dose 0.5 µg, read-out: Tumor/Kidney
  tissue to tissue ratio at 4 h: 0.011
tumor/kidney, 1 ug/mouse, peptide dose 1 µg, read-out: Tumor/Kidney
  tissue to tissue ratio at 4 h: 0.01
tumor/kidney, 2 ug/mouse, peptide dose 2 µg, read-out: Tumor/Kidney
  tissue to tissue ratio at 4 h: 0.008
tumor/lung, 0.1 ug/mouse, peptide dose 0.1 µg, read-out: Tumor/Lung
  tissue to tissue ratio at 4 h: 13
tumor/lung, 0.2 ug/mouse, peptide dose 0.2 µg, read-out: Tumor/Lung
  tissue to tissue ratio at 4 h: 10
tumor/lung, 0.5 ug/mouse, peptide dose 0.5 µg, read-out: Tumor/Lung
  tissue to tissue ratio at 4 h: 4.18
tumor/lung, 1 ug/mouse, peptide dose 1 µg, read-out: Tumor/Lung
  tissue to tissue ratio at 4 h: 4.81
tumor/lung, 2 ug/mouse, peptide dose 2 µg, read-out: Tumor/Lung
  tissue to tissue ratio at 4 h: 3.58
tumor/muscle, 0.1 ug/mouse, peptide dose 0.1 µg, read-out: Tumor/Muscle
  tissue to tissue ratio at 4 h: 33.7
tumor/muscle, 0.2 ug/mouse, peptide dose 0.2 µg, read-out: Tumor/Muscle
  tissue to tissue ratio at 4 h: 41.1
tumor/muscle, 0.5 ug/mouse, peptide dose 0.5 µg, read-out: Tumor/Muscle
  tissue to tissue ratio at 4 h: 19.1
tumor/muscle, 1 ug/mouse, peptide dose 1 µg, read-out: Tumor/Muscle
  tissue to tissue ratio at 4 h: 20.9
tumor/muscle, 2 ug/mouse, peptide dose 2 µg, read-out: Tumor/Muscle
  tissue to tissue ratio at 4 h: 12.2
